Laboratory results: patent publication US20100056519A1, “COMPOSITION AND METHOD FOR REDUCING PLATELET ACTIVATION AND FOR THE TREATMENT OF THROMBOTIC EVENTS” (priority 2008, published 2010)

How the values were obtained:
Format in all cases: cell-based, human
PAC-1 (GPIIb/IIIa) = experiment: Unstimulated whole blood flow cytometry, PAC-1; settings: for PAC-1 (GPIIb/IIIa), Mean Fluorescence Intensity: unstimulated, Mean ± SD
Protocol: (§1) The methodology employed was conventional aggregation induced by 5 μM ADP, 1 μg/ml collagen, 10 μM TRAP, whole blood aggregation with 1 μg/ml collagen, Ultegra, and PFA-100 Analyzers, expression of 14 intact, and TRAP-stimulated major receptors by whole blood flow cytometry were utilized to assess platelet activity after preincubation with escalating concentrations of E5555 (20 ng/ml, 50 ng/ml, and 100 ng/ml). The experiments were performed in healthy volunteers, CAD patients treated with ASA, and CAD patients treated with ASA and clopidogrel combination (n=10, for each group).
(§2) An Informed Consent was obtained from all volunteers. Drug users were excluded from data analysis. The study was approved by Quorum Institutional Review Board. All subjects underwent blood sampling after at least 30 minutes of rest and two or more hours of fasting. Blood (28 ml) was drawn between 8 and 10 a.m. in order to avoid any diurnal influence and sampled from an antecubital vein using a 21-gauge butterfly needle containing 3.2% sodium citrate (1:9 volume) after having discarded the first 1.5 ml of free running blood. Four Vacutainer tubes (7.0 ml) were collected for a total of 28 ml of whole blood-citrate mixture from each study participant. Chronologically, blood samples were delivered to the core laboratory facility within 45 minutes after drawing. Then all tubes of blood-citrate mixture were pooled. One portion of pooled blood (5 ml) was kept as an internal control and pretreated with the vehicle. The remaining blood (23 ml) was used for the in vitro exposure to E5555 at concentrations of 20 ng/ml, 50 ng/ml, and 100 ng/ml. […] The platelet aggregation studies, Rapid Analyzers measures, and flow cytometry preparations were initiated within no more than 110 minutes following the blood draw, incubation with the drug, and preparation of the samples.
(§3) Formation of platelet-leukocyte aggregates was assessed by dual labeling with pan-platelet marker (CD151), and then with CD14, the macrophage receptor for endotoxin lipopolysaccharides (PharMingen, and Coulter, San Diego, Calif., USA). The tubes were then covered with aluminum foil and incubated at 37° C. for 40 minutes with gentle rotation. After incubation, samples were immediately analyzed on a Becton Dickinson FACScan flow cytometer. The instrument was set up to measure forward light scatter, and FITC fluorescence. All parameters were collected using four-decade logarithmic amplification. The data was retrieved in list mode files and then analyzed. P selectin was expressed as percent positive cells. Other antigens were expressed as log mean fluorescence intensity.

GPIIb antigen (CD41) = experiment: Unstimulated whole blood flow cytometry, GPIIb antigen; settings: for GPIIb antigen (CD41), Mean Fluorescence Intensity: unstimulated, Mean ± SD
Protocol: as §1, §2, §3

platelets [1] = experiment: Platelet aggregation induced by 10 μM TRAP; settings: for Platelet Aggregation (%), TRAP 10 μM: Mean ± SD
Protocol: as §1, §2
(§4) Platelet counts were determined in each PRP sample with a Coulter Counter ZM (Coulter Co., Hialeah, Fla.). Platelet numbers were adjusted to 3.50×10^8/ml for aggregation using homologous platelet-poor plasma. Platelet aggregation was stimulated with 5 μM ADP, 1 μg/ml collagen, or 10 μM TRAP. All agonists were obtained from Chronolog Corporation (Havertown, Pa.) and Sigma (St. Louis, Miss.). Platelet aggregation experiments were performed using a Chrono-Log Lumi-Aggregometer (model 560-Ca). Aggregation curves were recorded for 4 minutes and analyzed according to internationally established standards using Aggrolink® software. Platelet aggregability was expressed as the percentage of light transmittance change from baseline using platelet-poor plasma as a reference.

GP37 (CD165) = experiment: TRAP-stimulated whole blood flow cytometry, GP37; settings: Mean ± SD
Protocol: as §1, §2, §3
For flow cytometry (TRAP-stimulated) all of the above flow cytometry experiments were identically repeated utilizing prestimulation with 10 μmol/L TRAP for 5 minutes at 37° C. To determine statistics, a Paired Sign Test was used to define significance of differences between vehicle and E5555-treated groups. The Mann-Whitney U test was used to analyze nonparametric data. Normally distributed data were expressed as mean±standard error (m±SE), and skewed data as median (range). All P-values were two sided. All analysis was performed using the SPSS v9.0 program (SPSS Inc., Chicago, Ill.).

P-selectin (CD62p) = experiment: Unstimulated whole blood flow cytometry, P-selectin; settings: for P-selectin (CD62p), % positive cells: unstimulated, Mean ± SD
Protocol: as §1, §2, §3

platelets [2] = experiment: Conventional platelet aggregation in PRP induced by 5 μM ADP; settings: for Platelet Aggregation (%), ADP 5 μM: Mean ± SD
Protocol: as §1, §2, §4

[3] = overall summary, stimulation not stated
[4] = E5555 20 ng/ml, Patients (ASA + C)
[5] = E5555 50 ng/ml, Patients (ASA + C)
[6] = E5555 100 ng/ml, Patients (ASA + C)
[7] = E5555 100 ng/ml, Patients (ASA)
[8] = ASA-treated patients with coronary artery disease
[9] = CAD patients treated with ASA+clopidogrel
[10] = E5555 20 ng/ml, CAD patients treated with ASA + clopidogrel
[11] = E5555 20 ng/ml, CAD patients treated with ASA
[12] = E5555 20 ng/ml, healthy volunteers
[13] = E5555 50 ng/ml, CAD patients treated with ASA + clopidogrel
[14] = E5555 50 ng/ml, CAD patients treated with ASA
[15] = E5555 50 ng/ml, healthy volunteers
[16] = E5555 100 ng/ml, CAD patients treated with ASA + clopidogrel
[17] = E5555 100 ng/ml, CAD patients treated with ASA
[18] = E5555 100 ng/ml, healthy volunteers
[19] = healthy volunteers, E5555 20, 50, and 100 ng/ml

With Br.CCOc1cc2c(c(F)c1OCC)C(=N)N(CC(=O)c1cc(N3CCOCC3)c(OC)c(C(C)(C)C)c1)C2 [E5555, 1-(3-tert-butyl-4-methoxy-5-morpholinophenyl)-2-(5,6-diethoxy-7-fluoro-1-imino-1,3-dihydro-2H-isoindol-2-yl)ethanone hydrobromide] the “GP IIb/IIIa activity with PAC-1, effect in words” value (PAC-1 (GPIIb/IIIa); [3]) was “significant reduction”, the “PAC-1 (GPIIb/IIIa), Mean Fluorescence Intensity” value (from here on “PAC-1 (GPIIb/IIIa)”) (PAC-1 (GPIIb/IIIa); [4]) was 5.9 ± 0.8 MFI and the “PAC-1 (GPIIb/IIIa)” value (PAC-1 (GPIIb/IIIa); E5555 20 ng/ml, Patients (ASA)) was 10.4 ± 1.2 MFI. The “PAC-1 (GPIIb/IIIa)” value (PAC-1 (GPIIb/IIIa); E5555 20 ng/ml, Volunteers) was 10.7 ± 1.3 MFI, the “PAC-1 (GPIIb/IIIa)” value (PAC-1 (GPIIb/IIIa); [5]) was 6.2 ± 1.0 MFI and the “PAC-1 (GPIIb/IIIa)” value (PAC-1 (GPIIb/IIIa); E5555 50 ng/ml, Patients (ASA)) was 10.1 ± 2.0 MFI. The “PAC-1 (GPIIb/IIIa)” value (PAC-1 (GPIIb/IIIa); E5555 50 ng/ml, Volunteers) was 9.2 ± 1.5 MFI, the “PAC-1 (GPIIb/IIIa)” value (PAC-1 (GPIIb/IIIa); [6]) was 6.3 ± 0.7 MFI and the “PAC-1 (GPIIb/IIIa)” value (PAC-1 (GPIIb/IIIa); [7]) was 11.7 ± 2.1 MFI. The “PAC-1 (GPIIb/IIIa)” value (PAC-1 (GPIIb/IIIa); E5555 100 ng/ml, Volunteers) was 9.9 ± 2.0 MFI, the “GP IIb/IIIa antigen expression, effect in words” value (GPIIb antigen (CD41); [3]) was “significant reduction” and the “GPIIb antigen (CD41), Mean Fluorescence Intensity” value (“GPIIb antigen (CD41)” for short) (GPIIb antigen (CD41); [4]) was 219 ± 25 MFI. The “GPIIb antigen (CD41)” value (GPIIb antigen (CD41); E5555 20 ng/ml, Patients (ASA)) was 391 ± 44 MFI, the “GPIIb antigen (CD41)” value (GPIIb antigen (CD41); E5555 20 ng/ml, Volunteers) was 423 ± 27 MFI and the “GPIIb antigen (CD41)” value (GPIIb antigen (CD41); [5]) was 240 ± 32 MFI. For the same compound, the “GPIIb antigen (CD41)” value (GPIIb antigen (CD41); E5555 50 ng/ml, Patients (ASA)) was 404 ± 31 MFI, the “GPIIb antigen (CD41)” value (GPIIb antigen (CD41); E5555 50 ng/ml, Volunteers) was 409 ± 25 MFI and the “GPIIb antigen (CD41)” value (GPIIb antigen (CD41); [6]) was 233 ± 30 MFI. The “GPIIb antigen (CD41)” value (GPIIb antigen (CD41); [7]) was 396 ± 42 MFI, the “GPIIb antigen (CD41)” value (GPIIb antigen (CD41); E5555 100 ng/ml, Volunteers) was 416 ± 24 MFI and the “TRAP-induced aggregation, effect in words” value (shortened to “TRAP-induced aggregation”) (platelets [1]; [8]) was “fully inhibiting”. The “TRAP-induced aggregation” value (platelets [1]; [9]) was “profound blockade”, the “Platelet Aggregation (%), TRAP 10 μM” value (platelets [1]; [10]) was 2.2 ± 1.6 % and the “Platelet Aggregation (%), TRAP 10 μM” value (platelets [1]; [11]) was 2.7 ± 1.4 %. The “Platelet Aggregation (%), TRAP 10 μM” value (platelets [1]; [12]) was 2.1 ± 1.2 %, the “Platelet Aggregation (%), TRAP 10 μM” value (platelets [1]; [13]) was 1.8 ± 1.0 % and the “Platelet Aggregation (%), TRAP 10 μM” value (platelets [1]; [14]) was 3.3 ± 1.8 %. For the same compound, the “Platelet Aggregation (%), TRAP 10 μM” value (platelets [1]; [15]) was 1.3 ± 1.2 %, the “Platelet Aggregation (%), TRAP 10 μM” value (platelets [1]; [16]) was 2.7 ± 2.2 % and the “Platelet Aggregation (%), TRAP 10 μM” value (platelets [1]; [17]) was 2.9 ± 2.0 %. The “Platelet Aggregation (%), TRAP 10 μM” value (platelets [1]; [18]) was 2.7 ± 1.8 %, the “TRAP-induced aggregation” value (platelets [1]; [19]) was “inhibited completely” and the “TRAP-induced aggregation” value (platelets [1]; overall summary of the study) was “inhibited almost completely”. The “GP37 (CD165), Mean Fluorescence Intensity” value (from here on “GP37 (CD165)”) (GP37 (CD165); [4]) was 27 ± 4 MFI, the “GP37 (CD165)” value (GP37 (CD165); E5555 20 ng/ml, Patients (ASA)) was 27 ± 5 MFI and the “GP37 (CD165)” value (GP37 (CD165); E5555 20 ng/ml, Volunteers) was 32 ± 6 MFI. The “GP37 (CD165)” value (GP37 (CD165); [5]) was 18 ± 4 MFI, the “GP37 (CD165)” value (GP37 (CD165); E5555 50 ng/ml, Patients (ASA)) was 20 ± 7 MFI and the “GP37 (CD165)” value (GP37 (CD165); E5555 50 ng/ml, Volunteers) was 28 ± 5 MFI. The “GP37 (CD165)” value (GP37 (CD165); [6]) was 21 ± 9 MFI, the “GP37 (CD165)” value (GP37 (CD165); [7]) was 22 ± 6 MFI and the “GP37 (CD165)” value (GP37 (CD165); E5555 100 ng/ml, Volunteers) was 29 ± 4 MFI. For the same compound, the “P selectin, effect in words” value (P-selectin (CD62p); [3]) was “not affected”, the “P-selectin (CD62p), % positive cells” value (P-selectin (CD62p); [4]) was 7.6 ± 2.0 % positive cells and the “P-selectin (CD62p), % positive cells” value (P-selectin (CD62p); E5555 20 ng/ml, Patients (ASA)) was 9.7 ± 1.5 % positive cells. The “P-selectin (CD62p), % positive cells” value (P-selectin (CD62p); E5555 20 ng/ml, Volunteers) was 10.8 ± 2.0 % positive cells, the “P-selectin (CD62p), % positive cells” value (P-selectin (CD62p); [5]) was 7.7 ± 2.2 % positive cells and the “P-selectin (CD62p), % positive cells” value (P-selectin (CD62p); E5555 50 ng/ml, Patients (ASA)) was 10.1 ± 1.8 % positive cells. The “P-selectin (CD62p), % positive cells” value (P-selectin (CD62p); E5555 50 ng/ml, Volunteers) was 12.3 ± 2.2 % positive cells, the “P-selectin (CD62p), % positive cells” value (P-selectin (CD62p); [6]) was 8.0 ± 11.5 % positive cells and the “P-selectin (CD62p), % positive cells” value (P-selectin (CD62p); [7]) was 10.7 ± 1.6 % positive cells. The “P-selectin (CD62p), % positive cells” value (P-selectin (CD62p); E5555 100 ng/ml, Volunteers) was 11.4 ± 1.8 % positive cells, the “inhibition of platelet activity, aggregation induced by ADP” value (platelets [2]; [8]) was 10-12% and the “ADP-induced aggregation, effect in words” value (platelets [2]; [9]) was “remains unchanged”. The “Platelet Aggregation (%), ADP 5 μM” value (platelets [2]; [10]) was 40.8 ± 7.1%, the “Platelet Aggregation (%), ADP 5 μM” value (platelets [2]; [11]) was 51.8 ± 4.7 % and the “Platelet Aggregation (%), ADP 5 μM” value (platelets [2]; [12]) was 57.0 ± 9.2 %. For the same compound, the “Platelet Aggregation (%), ADP 5 μM” value (platelets [2]; [13]) was 42.6 ± 8.3%, the “Platelet Aggregation (%), ADP 5 μM” value (platelets [2]; [14]) was 53.3 ± 5.9 % and the “Platelet Aggregation (%), ADP 5 μM” value (platelets [2]; [15]) was 59.4 ± 7.9 %. The “Platelet Aggregation (%), ADP 5 μM” value (platelets [2]; [16]) was 39.3 ± 5.1%, the “Platelet Aggregation (%), ADP 5 μM” value (platelets [2]; [17]) was 56.2 ± 5.3% and the “Platelet Aggregation (%), ADP 5 μM” value (platelets [2]; [18]) was 60.8 ± 10.0 %. The “inhibition of conventional platelet aggregation induced by ADP” value (platelets [2]; [19]) was 15-20% and the “inhibition of ADP-induced platelet aggregation in plasma” value (platelets [2]; overall summary of the study) was 10-15%.
